US7312193B2, “Calcium phosphopeptide complexes” (The University of Melbourne, priority 1997, dated 2007)
Square brackets hold non-standard residues; d marks the D form. Ends that are not written are not given here. pT = C[C@@H](OP(=O)(O)O)[C@H](N)C(=O)O; pS = N[C@@H](COP(=O)(O)O)C(=O)O

Experiments:
[1] = Calcium phosphate binding by CPP and synthetic homologues and analogues; conditions: for Vca: calcium bound per peptide; for VPi: inorganic phosphate bound per peptide; for Ca bound per molecule / Pi bound per molecule: maximal binding, 0.1% w/v peptide; for Ca/P: ratio of bound Ca to bound Pi
From the text: Casein phosphopeptides containing the Ser(P) cluster, i.e. the core sequence motif Ser(P)-Ser(P)-Ser(P)-Glu-Glu-(SEQ ID NO: 5), have a marked ability to stabilize calcium phosphate in solution. Solutions containing 0.1% w/v αs1(59-79) (SEQ ID NO: 1) at various pH, calcium and phosphate concentrations, but constant ionic strengths were used to characterize the peptide's interaction with calcium phosphate.
The ion activity products for the various calcium phosphate phases [hydroxyapatite (HA); octacalcium phosphate (OCP); tricalcium phosphate (TCP); amorphous calcium phosphate (ACP); and dicalcium phosphate dihydrate (DCPD) were determined from the free calcium and phosphate concentrations at each pH using a computer program that calculates the ion activity coefficients through the use of the expanded Debye-Hückel equation and takes into account the ion pairs CaHPO4^o, CaH2PO4^+, CaPO4^−and CaOH^+ the dissociation of H3PO4 and H2O and the ionic strength. […] The peptide αs1(59-79) (SEQ ID NO: 1) binds to forming ACP clusters producing a metastable solution preventing ACP growth to the critical size required for nucleation and precipitation. The binding of αs1(59-79) (SEQ ID NO: 1) to ACP results in the formation of colloidal complexes with the unit formula [αs1(59-79) (SEQ ID NO: 1)(ACP)8]n where n is equal to or greater than one. It is likely that the predominant form is n=6 as αs1(59-79) (SEQ ID NO: 1) cross-linked with glutaraldehyde in the presence of ACP runs as a hexamer on polyacrylamide gel electrophoresis.
The relationship between CPP structure and interaction with amorphous calcium phosphate was investigated using a series of synthetic peptide homologues and analogues indicated in Table 1.

[2] = CPP and synthetic peptide binding to HA at 37° C.; conditions: affinity constant
From the text: Similarly, we investigated the adsorption of the CPP and synthetic homologues and analogues onto HA (Table 2).

For “AcGlu-Ser(P)-Ile-Ser(P)-Ser(P)-Ser(P)-Glu-GluNHMe [αs1(63-70)]”, the Vca [1] was 12 mol/mol, the VPi [1] was 8 mol/mol and the “Ca bound per molecule” value [1] was 12 per molecule. For the same substance, the “Pi bound per molecule” value [1] was 8 per molecule, the Ca/P [1] was 1.5 and the K [2] was 10,370 ml/μmol.
In the case of AΣAE (A[pS]AE), the Vca [1] was 0 mol/mol and the VPi [1] was 0 mol/mol.
In the case of AΣAΣAE (A[pS]A[pS]AE), the Vca [1] was 0 mol/mol and the VPi [1] was 0 mol/mol.
AΣAΣAΣAE (A[pS]A[pS]A[pS]AE) showed a Vca [1] of 2 mol/mol, a VPi [1] of 1 mol/mol and a Ca/P [1] of 1.5.
Work on AΣAΣAΣAΣAE (A[pS]A[pS]A[pS]A[pS]AE) yielded a Vca [1] of 6 mol/mol, a VPi [1] of 4 mol/mol and a Ca/P [1] of 1.5.
For DΣΣEE (D[pS][pS]EE), the Vca [1] was 2 mol/mol, the VPi [1] was 1 mol/mol and the Ca/P [1] was 2.0. For the same substance, the K [2] was 6,579 ml/μmol.
For EAIAΣAEA (EAIA[pS]AEA), the Vca [1] was 0 mol/mol and the VPi [1] was 0 mol/mol.
Work on EΣLΣΣΣEE [β(14-21)] yielded a Vca [1] of 12 mol/mol, a VPi [1] of 8 mol/mol and a Ca/P [1] of 1.5.
For EΣΣEE (E[pS][pS]EE), the Vca [1] was 2 mol/mol, the VPi [1] was 1 mol/mol and the Ca/P [1] was 2.0. The K [2] was 1,513 ml/μmol.
For “Gln-Met-Glu-Ala-Glu (QMEAE) [αs1(59-63)]”, the “calcium phosphate binding” value [1] was “did not bind calcium phosphate”, the Vca [1] was 0 mol/mol and the VPi [1] was 0 mol/mol.
IAΣAEA (IA[pS]AEA) gave a Vca [1] of 0 mol/mol and a VPi [1] of 0 mol/mol.
With IVPN[pS]VEQ [αs1(71-78)] the “calcium phosphate binding” value [1] was “did not bind calcium phosphate”, the Vca [1] was 0 mol/mol and the VPi [1] was 0 mol/mol.
With “QMEAEΣIΣΣΣEEIVPNΣVEQK (QMEAE[pS]I[pS][pS][pS]EEIVPN[pS]VEQK; listed as Bos sp.) [αs1(59-79), tryptic casein phosphopeptide]” the Vca [1] was 24 mol/mol, the VPi [1] was 16 mol/mol and the “Ca bound per molecule” value [1] was 24 per molecule. The “Pi bound per molecule” value [1] was 16 per molecule, the Ca/P [1] was 1.5 and the K [2] was 415 mL/µmol.
With “RELEELNVPGEIVEΣLΣΣΣEESITR (RELEELNVPGEIVE[pS]L[pS][pS][pS]EESITR; listed as Bos sp.) [β(1-25), tryptic casein phosphopeptide]” the Vca [1] was 24 mol/mol, the VPi [1] was 16 mol/mol and the Ca/P [1] was 1.5.
Work on SΣΣEE (S[pS][pS]EE) yielded a Vca [1] of 2 mol/mol, a VPi [1] of 1 mol/mol and a Ca/P [1] of 2.0.
SθθEE (S[pT][pT]EE) showed a Vca [1] of 2 mol/mol, a VPi [1] of 1 mol/mol and a Ca/P [1] of 2.0.
For TθθEE (T[pT][pT]EE), the K [2] was 1,013 ml/μmol.
For [pS][pS][pS]EE [ΣΣΣEE], the Vca [1] was 9 mol/mol, the VPi [1] was 6 mol/mol and the Ca/P [1] was 1.5. The K [2] was 12,845 ml/μmol.
With θTθEE ([pT]T[pT]EE) the K [2] was 837 mL/µmol.
With θθTEE the K [2] was 1,799 ml/μmol.
